For this data set the following is noted: 100% relative humidity over 48 hours.

As for `CCOC(=O)N1c2ccc(C(F)(F)F)cc2[C@@H](N(Cc2cc(C(F)(F)F)cc(C(F)(F)F)c2)C(=O)OC)C[C@H]1CC` [Example 9, Anhydrous (−)-(2R,4S)-4-[(3,5-Bis-trifluoromethyl-benzyl)-methoxycarbonyl-amino]-2-ethyl-6-trifluoromethyl-3,4-dihydro-2H-quinoline-1-carboxylic Acid Ethyl Ester], the Hygroscopicity result is on record as “Non-hygroscopic”.

These data come from patent US20020035125A1, “Therapeutic combination” (priority 2000, published 2002).
